Data set [1] deals with VanB phenotype (vanB). To be noted: allele vanB; cited from earlier work.
Data set [2] relates to VanC phenotype (vanC). Particulars: allele vanC; cited from earlier work.
Data set [3] relates to VanD phenotype (vanD). Particulars: allele vanD; cited from earlier work.
The test system of data set [4] is VanE phenotype (vanE). To be noted: allele vanE; cited from earlier work.
The test system of data set [5] is VanG phenotype (vanG). Particulars: allele vanG; cited from earlier work.
Data set [6] relates to VanA phenotype (vanA). Particulars: allele vanA; cited from earlier work.
The test system of data set [7] is E. faecalis vanB synthetic construct. Description: Real-time PCR amplification of vanB synthetic construct. Particulars: Input synthetic construct (vanB); oligos 400 nM each; ABI 7500, 50 cycles. As for the experimental part: (§1) The oligonucleotide sequences listed in Table 5 were tested for their ability to amplify their intended target sequences. About 25 μL PCRs were formulated using iQTM Supermix for qPCR (BioRad) and oligos at a final concentration of 400 nM each.
(§2) Genomic DNA isolated from E. faecium (ATCC No. 5159, strain MMC4, vanA) and E. faecalis (ATCC No. 700802, strain V583, vanB) were loaded into real-time PCRs using oligonucleotide solutions specific for vanA and vanB. The specificity of the oligonucleotide solutions was assessed by attempting to amplify E. faecalis (vanB) gDNA with vanA oligos and E. faecium (vanA) gDNA with vanB oligos. Amplification plots are illustrated in FIGS. 1 and 2, which show detection of vanA and vanB. Synthetic constructs encoding the vanA and vanB targets were amplified and compared to duplicate reactions where E. faecium (ATCC No. 5159, strain MMC4, vanA) and E. faecalis (ATCC No. 700802, strain V583, vanB) gDNA was amplified.
(§3) PCRs were run on the ABI 7500 with the following Thermal protocol: • 95° C. 5 minute, initial denaturation • 50 cycles of: • 95° C. 15 sec, denaturation, and • 60° C. 1 min, annealing/extension […]
A general note: In qPCR the cycle at which signal appears reflects the starting amount.

For data set [8], the system named is E. faecalis (ATCC No. 700802, strain V583, vanB) gDNA. Briefly: Real-time PCR on E. faecalis (vanB) gDNA. Particulars: Input E. faecalis (ATCC No. 700802, strain V583, vanB) gDNA; duplicate reactions; oligos 400 nM each. How it is done: as §1, §2, §3
Data set [9] relates to E. faecium (ATCC No. 5159, strain MMC4, vanA) gDNA. Description: Real-time PCR on E. faecium (vanA) gDNA. Particulars: Input E. faecium (ATCC No. 5159, strain MMC4 vanA) gDNA; duplicate reactions; oligos 400 nM each. As for the experimental part: as §1, §2, §3
Data set [10] deals with E. faecium vanA synthetic construct. Briefly: Real-time PCR amplification of vanA synthetic construct. Particulars: Input synthetic construct (vanA); oligos 400 nM each; ABI 7500, 50 cycles. How it is done: as §1, §2, §3

“And” between values parts separate entries of the source, which are not always exact repeats. Equal values may be shown once.

For the molecule `CN[C@H](CC(C)C)C(=O)N[C@H]1C(=O)N[C@@H](CC(N)=O)C(=O)N[C@H]2C(=O)N[C@H]3C(=O)N[C@H](C(=O)N[C@H](C(=O)O)c4cc(O)cc(O)c4-c4cc3ccc4O)[C@H](O)c3ccc(c(Cl)c3)Oc3cc2cc(c3O[C@@H]2O[C@H](CO)[C@@H](O)[C@H](O)[C@H]2O[C@H]2C[C@](C)(N)[C@H](O)[C@H](C)O2)Oc2ccc(cc2Cl)[C@H]1O` [vancomycin], the MIC in data set [1] was 4-1024 (can be high) μg/mL; in data set [2], 2-32 (low) μg/mL; in data set [3], 128 (moderate) μg/mL; in data set [4], 16 (low) μg/mL; in data set [5], 12-16 (low) μg/mL.
In the case of teicoplanin, the MIC in data set [6] is on record as 16-512 (high) μg/mL; in data set [1], “≦0.5 (sensitive) μg/mL”; in data set [2] it was “≦0.5 (sensitive) μg/mL”; in [3], 4 (moderate) μg/mL; in data set [4] it was 0.5 (sensitive) μg/mL; in [5], 0.5 (sensitive) μg/mL.

B1: vanB: vanB oligonucleotide solution: SEQ ID NOS: 103, 108, and 66 (nucleic acid)
DNA 1: TTACCTACCCTGTCTTTGTGAA
DNA 2: CAGGTTCGTCCTTTGGCGTAACCA
DNA 3: GCTCAATTAAGATTTTTCCATCATATTGTC
modifications: chemistry not given here
For B1, the Ct is 24.04 in data set [7]; 21.85 and 21.53 in data set [8]; “UND” in [9].

B2: vanA: vanA oligonucleotide solution: SEQ ID NO: 1, 2, and 5 (nucleic acid)
DNA 1: TTGTGCGGTATTGGGAAACAGT
DNA 2: TGATTTGGTCCACCTCGCCAACAACTAACGC
DNA 3: CTCGACTTCCTGATGAATACGAAAGATTC
modifications: chemistry not given here
With B2, the Ct in [10] was 23.36; in data set [8], “UND”; in [9], 19.67 and 19.80.

The record behind these values is US20160138088A1, “OPTIMIZED PROBES AND PRIMERS AND METHODS OF USING SAME FOR THE DETECTION, SCREENING, ISOLATION AND SEQUENCING OF VANCOMYCIN RESISTANCE GENES AND VANCOMYCIN RESISTANT ENTEROCOCCI” (priority 2009, published 2016).
